Measurements from patent publication US12324927B2, “Methods and systems for photodynamic therapy calculations” (THE TRUSTEES OF THE UNIVERSITY OF PENNSYLVANIA, priority 2018, dated 2025).

Key:
[1] = Clinical ROSED during Photofrin-mediated pleural PDT (light fluence, Photofrin concentration, DCS blood flow); format: in vivo, human
Procedure: Patients with pathologically confirmed epithelioid malignant pleural mesothelioma were enrolled in a phase II randomized clinical trial of extended pleurectomy/decortication with or without Photofrin-mediated PDT. Photofrin (provided by Pinnacle Biologics, Chicago, IL, USA) was administered at 2 mg per kg of body weight as an intravenous infusion approximately 24 hours prior to the anticipated time of intra-operative PDT. After surgically resecting all gross disease, PDT treatment was performed with 630 nm light to a total fluence of 60 J/cm^2 as previously described (24-28). Briefly, the pleural cavity was filled with diluted Intralipid solution to aid with light scattering and 60 J/cm^2 630 nm light was delivered to the pleural cavity via an optical fiber inserted into modified endotracheal tube filled with 0.1% Intralipid. Homogeneous light delivery is accomplished by continuously moving the light source around the pleural cavity b with continuous feedback monitoring of light fluence rate and cumulative fluence provided by 8 isotropic detectors (Medlight, Switzerland) sutured to the chest wall. Four of the eight isotropic detectors were used to monitor the light dose and Photofrin fluorescence simultaneously. Long pass filters (Semrock, Inc., Rochester, NY, USA) were used to block the treatment light before the fluorescence was recorded by 4 single channel spectrometers (Exemplar, B&W Tek, Inc., Newark, DE, USA).
PDT dose dosimeter consists of photodiodes for light fluence rates measurements and spectrometers for fluorescence measurements. More details about PDT dosimeter and the quantification of absolute Photofrin concentration from measured fluorescence spectra can be found in (19).
Measurement of blood flow during clinical PDT: DCS monitoring of tissue blood flow during pleural PDT was implemented using a custom built DCS contact probe as shown in FIG. 15B. The contact probe consists of a side-firing multimode source fiber and three single mode detector fibers polished at 45°. Light from a continuous wave 785-nm laser with long coherence length was delivered through the source fiber, and the reflected diffuse light was collected using the detector fibers located at 0.4, 0.7 and 1.0-cm from the source fiber. Three single photon counting avalanche photodiodes were used to detect the diffuse light in parallel. The DCS probe was mounted onto a clear acrylic rectangle pad with small holes at each corner that allowed it to be sutured adjacent to one of the isotropic detectors measuring light fluence rate and photosensitizer fluorescence data. Tissue blood flow was measured continuously throughout the PDT treatment. The study started with one DCS contact probe for the first 2 patients, and it was later expanded for the next 5 patients to include the second DCS contact probe to enable simultaneous measurements of blood flow at two different pleural sites.
Calculation of [ROS]rx using ROSED: The PDT process is described by a set of kinetic equations which can be simplified to compute the production of [ROS]rx (4, 8, 9, 13). These equations are dependent on the temporal and spatial distribution of light fluence rate (ϕ), photosensitizer concentration ([S0]), ground state oxygen concentration ([^3O2]), oxygen supply rate (g), and the photosensitizer-specific reaction-rate parameters (δ, β, σ, and ξ). The relevant equations are: […]
Since Photofrin concentration and tissue oxygen were measured in this study, only Eq. (A3) is needed to calculate for [ROS]rx. For the calculation of [ROS]rx, the term on the right-hand side of Eq. (A3) is integrated over the time course of PDT treatment using the measured value of [^3O2], [S0], and light fluence rate. In vivo light fluence rate distribution can be estimated from the in-air light fluence rate using a 6-parameter analytic expression (29). Tissue optical properties needed for this calculation were obtained from diffuse reflectance measurements using the multi-fiber contact probe. […]

[2] = test system: radiation-induced fibrosarcoma (RIF) tumors; conditions: larger tumors; cited from earlier work
[3] = average of 12 sites, 7 patients

photobleaching (mean Photofrin concentrations during PDT) ([1]; all measurement sites and all patients): no sign of photobleaching | mean Photofrin concentration of all pleural tissues [1, 3]: 6.2 ± 2.1 mg/kg | [Photofrin] ([1]; mean corrected concentration per patient and pleural site, 2 mg per kg i.v. about 24 h before PDT, pleural apex): 3.9 mg/kg
Substance: Photofrin
range of calculated [ROS]rx ([1]; 12 sites, 7 patients): 0.31−1.17 mM | [ROS]rx ([1]; at surface, per patient and pleural site, ROSED with blood-flow-derived oxygen, pleural apex): 0.59 mM | mean (standard deviation) calculated [ROS]rx [1, 3]: 0.59 ± 0.25 mM | PDT dose threshold from previous study [2]: 1200 mM J/cm^2
